Target: T1, P2X7 (Homo sapiens, UniProt Q99572)
T1 construct: host or cells: SH-SY5Y
T1 sequence (Q99572 1-595): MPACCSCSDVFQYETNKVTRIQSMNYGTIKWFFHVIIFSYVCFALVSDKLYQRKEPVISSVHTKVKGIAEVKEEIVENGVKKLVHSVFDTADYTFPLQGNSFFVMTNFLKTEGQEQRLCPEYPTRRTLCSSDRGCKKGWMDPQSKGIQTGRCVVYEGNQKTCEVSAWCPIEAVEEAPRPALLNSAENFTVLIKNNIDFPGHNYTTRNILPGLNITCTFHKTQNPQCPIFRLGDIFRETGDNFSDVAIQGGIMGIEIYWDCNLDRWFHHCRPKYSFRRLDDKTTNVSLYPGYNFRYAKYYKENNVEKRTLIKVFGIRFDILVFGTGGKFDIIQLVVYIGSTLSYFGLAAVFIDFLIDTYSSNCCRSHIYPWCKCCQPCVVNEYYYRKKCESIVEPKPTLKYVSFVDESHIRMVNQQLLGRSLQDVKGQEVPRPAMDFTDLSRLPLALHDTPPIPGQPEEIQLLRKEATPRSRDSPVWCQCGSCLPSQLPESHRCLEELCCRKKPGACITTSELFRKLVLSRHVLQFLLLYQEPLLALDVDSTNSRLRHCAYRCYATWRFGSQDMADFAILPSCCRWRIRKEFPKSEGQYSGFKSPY
Experiment: High Throughput P2X7 Calcium Mobilization Assay (Example 4A), antagonist activity
Assay type: cell-based
Conditions: SH-SY5Y cells, 50% decrease in fluorescence response of cells exposed to 80 μM BzATP
Outline: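 SH-SY5Y cells loaded with Fluo-4 AM were preincubated 1 h at room temperature with compound (typically 1–2500 nM) in sucrose/HEPES buffer, pH 7.4, then challenged with 80 μM BzATP (final, about EC50). Peak fluorescence over 2 min gave percent inhibition relative to agonist-only wells, and IC50 came from a Hill-equation fit.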

| Compound | IC50 |
| --- | --- |
| CN[C@@H]1CCN(C(=O)c2cc3c(C(=O)NCC45CC6CC(CC(C6)C4)C5)cccn3n2)C1 [Compound 46, N-(adamantan-1-ylmethyl)-2-{[(3R)-3-(methylamino)pyrrolidin-1-yl]carbonyl}pyrazolo [1,5-a]pyridine-4-carboxamide] | ≤ 2000 nM |
| CCN(CC)[C@@H]1CCN(C(=O)c2cc3c(C(=O)NCC45CC6CC(CC(C6)C4)C5)cccn3n2)C1 [Compound 31, N-(adamantan-1-ylmethyl)-2-{[(3R)-3-(diethylamino)pyrrolidin-1-yl]carbonyl}pyrazolo [1,5-a]pyridine-4-carboxamide] | ≤ 2000 nM |
| O=C(O)CC(c1ccccc1)c1cc2c(C(=O)NCC34CC5CC(CC(C5)C3)C4)cccn2n1 (stereo not drawn) [Compound 106, 3-{4-[(adamantan-1-ylmethyl)carbamoyl]pyrazolo[1,5-a]pyridin-2-yl}-3-phenylpropanoic acid] | ≤ 2000 nM |
| CN(Cc1cccc(F)c1)C(=O)c1cc2c(C(=O)NCC34CC5CC(CC(C5)C3)C4)cccn2n1 [Compound 66, 4-N-(adamantan-1-ylmethyl)-2-N-(3-fluorobenzyl)-2-N-methylpyrazolo[1,5-a]pyridine-2,4-dicarboxamide] | ≤ 2000 nM |
| 2-{[(3R)-3- aminopyrrolidin-1- yl]carbonyl}-N-[4- methyl-2-(4- methylphenyl)pentyl] pyrazolo[1,5-a]pyridine- 4-carboxamide [Compound 73] | ≤ 2000 nM |
| CN(CC(F)(F)F)C(=O)c1cc2c(C(=O)NCC34CC5CC(CC(C5)C3)C4)cccn2n1 [Compound 76, 4-N-(adamantan-1-ylmethyl)-2-N-methyl-2-N-(2,2,2-trifluoroethyl)pyrazolo [1,5-a]pyridine-2,4-dicarboxamide] | ≤ 2000 nM |
| O=C(NCC1(c2ccc(Cl)cc2)CCCCC1)c1cccn2nc(C(=O)N3CCOCC3)cc12 [Compound 84, N-{[1-(4-chlorophenyl)cyclohex-yl]methyl}-2-(morpholin-4-ylcarbonyl)pyrazolo [1,5-a]pyridine-4-carboxamide] | ≤ 2000 nM |
| Cn1ncc2c1CCN(C(=O)c1cc3c(C(=O)NCC45CC6CC(CC(C6)C4)C5)cccn3n1)C2 [Compound 34, N-(adamantan-1-ylmethyl)-2-[(1-methyl-1,4,6,7-tetrahydro-5H-pyrazolo[4,3-c]pyridin-5-yl)carbonyl]pyrazolo [1,5-a]pyridine-4-carboxamide] | ≤ 2000 nM |
| O=C(NCC1(c2ccc(Cl)cc2)CCCCC1)c1cccn2nc(C(=O)N3CCn4cncc4C3)cc12 [Compound 83, N-{[1-(4-chlorophenyl)cyclohex-yl]methyl}-2-(5,6-dihydroimidazo[1,5-a]pyrazin-7(8H)-ylcarbonyl)pyrazolo [1,5-a]pyridine-4-carboxamide] | ≤ 2000 nM |

More lines, now with the values ahead:

| IC50 | Compound |
| --- | --- |
| ≤ 2000 nM | O=C1CN(C(=O)c2cc3c(C(=O)NCC45CC6CC(CC(C6)C4)C5)cccn3n2)CCN1 [Compound 32, N-(adamantan-1-ylmethyl)-2-[(3-oxopiperazin-1-yl)carbonyl]pyrazolo [1,5-a]pyridine-4-carboxamide] |
| ≤ 2000 nM | O=C(NCC12CC3CC(CC(C3)C1)C2)c1cccn2nc(C(Cc3ccccc3)C(=O)O)cc12 (stereo not drawn) [Compound 103, 2-{4-[(adamantan-1-ylmethyl)carbamoyl]pyrazolo[1,5-a]pyridin-2-yl}-3-phenylpropanoic acid] |
| ≤ 2000 nM | CC(C)CC(CNC(=O)c1cccn2nc(C(=O)N3[C@H](C)COC[C@@H]3C)cc12)c1ccc(C(F)(F)F)cc1 (single isomer, unassigned) [Compound 102] |
| ≤ 2000 nM | CN(C(=O)c1cc2c(C(=O)NCC34CC5CC(CC(C5)C3)C4)cccn2n1)c1ccccn1 [Compound 19, 4-N-(adamantan-1-ylmethyl)-2-N-methyl-2-N-pyridin-2-ylpyrazolo[1,5-a]pyridine-2,4-dicarboxamide] |
| ≤ 2000 nM | O=C(CC12CC3CC(CC(C3)C1)C2)Nc1cccn2nc(C(=O)N3CCOCC3)cc12 [Compound 96, 2-adamantan-1-yl-N-[2-(morpholin-4-ylcarbonyl)pyrazolo [1,5-a]pyridin-4-yl]acetamide] |
| ≤ 2000 nM | COCCCNC(=O)c1cc2c(C(=O)NCC34CC5CC(CC(C5)C3)C4)cccn2n1 [Compound 38, 4-N-(adamantan-1-ylmethyl)-2-N-(3-methoxypropyl)pyrazolo [1,5-a]pyridine-2,4-dicarboxamide] |
| ≤ 2000 nM | O=C(NCC12CC3CC(CC(C3)C1)C2)c1cccn2nc(CC3=NCCN3)cc12 [Compound 89, N-(adamantan-1-ylmethyl)-2-(4,5-dihydro-1H-imidazol-2-ylmethyl)pyrazolo[1,5-a]pyridine-4-carboxamide] |
| ≤ 2000 nM | Cc1nc2c(c(=O)[nH]1)CN(C(=O)c1cc3c(C(=O)NCC45CC6CC(CC(C6)C4)C5)cccn3n1)CC2 [Compound 30, N-(adamantan-1-ylmethyl)-2-[(2-methyl-4-oxo-3,5,7,8-tetrahydropyrido[4,3-d]pyrimidin-6(4H)-yl)carbonyl]pyrazolo [1,5-a]pyridine-4-carboxamide] |
| ≤ 2000 nM | CN(Cc1ccccn1)C(=O)c1cc2c(C(=O)NCC34CC5CC(CC(C5)C3)C4)cccn2n1 [Compound 50, 4-N-(adamantan-1-ylmethyl)-2-N-methyl-2-N-(pyridin-2-ylmethyl)pyrazolo[1,5-a]pyridine-2,4-dicarboxamide] |

Source: US8580812B2, “Heteroaryl amide analogues as P2X7 antagonists” (H. Lundbeck A/S, priority 2007, dated 2013)
